Data reported in patent publication US8524909B2, “Tetrahydro-pyran derivatives” (Hoffmann-La Roche Inc., priority 2010, dated 2013).

These compounds were tested against mGlyT-1b (Mus musculus (Mouse), UniProt P28571) (assay: Glycine Uptake Inhibition Assay (mGlyT-1b)). Details: [3H]-glycine uptake in Flp-in-CHO cells stably transfected with mGlyT1b cDNA; 20 min preincubation at 22° C.
Format: cell-based
Method: DMEM complete medium: Nutrient mixture F-12 (Gibco Life-technologies), fetal bovine serum (FBS) 5%, (Gibco life technologies), Penicillin/Streptomycin 1% (Gibco life technologies), Hygromycin 0.6 mg/ml (Gibco life technologies), Glutamine 1 mM Gibco life technologies)
Uptake buffer (UB): 150 mM NaCl, 10 mM Hepes-Tris, pH 7.4, 1 mM CaCl2, 2.5 mM KCl, 2.5 mM MgSO4, 10 mM (+) D-glucose.
Flp-in™-CHO (Invitrogen Cat no R758-07) cells stably transfected with mGlyT1b cDNA.
Glycine Uptake Inhibition Assay (mGlyT-1b)
On day 1 mammalian cells, (Flp-in™-CHO), transfected with mGlyT-1b cDNA, were plated at the density of 40,000 cells/well in complete F-12 medium, without hygromycin in 96-well culture plates. On day 2, the medium was aspirated and the cells were washed twice with uptake buffer (UB). The cells were then incubated for 20 min at 22° C. with either (i) no potential competitor, (ii) 10 mM non-radioactive glycine, (iii) a concentration of a potential inhibitor. A range of concentrations of the potential inhibitor was used to generate data for calculating the concentration of inhibitor resulting in 50% of the effect (e.g. IC50, the concentration of the competitor inhibiting glycine uptake of 50%). A solution was then immediately added containing [^3H]-glycine 60 nM (11-16 Ci/mmol) and 25 μM non-radioactive glycine. The plates were incubated with gentle shaking and the reaction was stopped by aspiration of the mixture and washing (three times) with ice-cold UB. The cells were lysed with scintillation liquid, shaken 3 hours and the radioactivity in the cells was counted using a scintillation counter.

mGlyT-1b, sequence (P28571 other isoform, or with tags, fused parts or gaps isoform P28571-2): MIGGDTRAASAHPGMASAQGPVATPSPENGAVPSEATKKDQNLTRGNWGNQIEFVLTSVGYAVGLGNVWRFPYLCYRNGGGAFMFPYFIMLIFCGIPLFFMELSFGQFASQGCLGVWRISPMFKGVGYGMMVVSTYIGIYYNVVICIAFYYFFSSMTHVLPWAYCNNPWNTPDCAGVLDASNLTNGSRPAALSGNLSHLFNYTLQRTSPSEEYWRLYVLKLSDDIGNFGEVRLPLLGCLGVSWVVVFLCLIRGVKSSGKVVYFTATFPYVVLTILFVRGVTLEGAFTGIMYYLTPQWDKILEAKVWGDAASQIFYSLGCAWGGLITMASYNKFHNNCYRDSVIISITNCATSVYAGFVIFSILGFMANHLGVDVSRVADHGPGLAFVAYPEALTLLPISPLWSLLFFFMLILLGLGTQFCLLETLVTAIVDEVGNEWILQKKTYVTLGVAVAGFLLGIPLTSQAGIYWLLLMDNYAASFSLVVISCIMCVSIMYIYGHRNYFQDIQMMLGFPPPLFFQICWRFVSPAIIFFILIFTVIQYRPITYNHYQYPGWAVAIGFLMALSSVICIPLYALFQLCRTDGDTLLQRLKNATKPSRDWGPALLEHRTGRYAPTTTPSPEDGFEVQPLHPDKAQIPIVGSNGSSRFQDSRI

Row | Structure (SMILES) | IC50 [nM]
1 | COc1cc(C(F)(F)F)cc(SC)c1C(=O)N[C@H]1COCC[C@@H]1NC1CCC1 (racemic) [Example 4, N-((3RS,4SR)-4-Cyclobutylamino-tetrahydro-pyran-3-yl)-2-methoxy-6-methylsulfanyl-4-trifluoromethyl-benzamide] | 337
2 | COc1cc(C(F)(F)F)cc(SC)c1C(=O)N[C@H]1COCC[C@@H]1N1CCCC1 (racemic) [Example 2, 2-Methoxy-6-methylsulfanyl-N-((3RS,4SR)-4-pyrrolidin-1-yl-tetrahydro-pyran-3-yl)-4-trifluoromethyl-benzamide] | 66.2
3 | CCc1cc(C(F)(F)F)cc(OC)c1C(=O)N[C@@H]1COCC[C@H]1N1CCCC1 [Example 56, (−)-2-Ethyl-6-methoxy-N-(4-pyrrolidin-1-yl-tetrahydro-pyran-3-yl)-4-trifluoro-methyl-benzamide] | 15.5
4 | Cc1cc(C(F)(F)F)cc(C)c1C(=O)N[C@@H]1COCC[C@H]1N1CCCC1 (racemic) [Example 21, 2,6-Dimethyl-N-((3SR,4RS)-4-pyrrolidin-1-yl-tetrahydro-pyran-3-yl)-4-trifluoro-methylbenzamide] | 45.2
5 | O=C(N[C@@H]1COCC[C@H]1NCC1CC1)c1ccc(C(F)(F)F)cc1C1CC1 (racemic) [Example 18, Cyclopropyl-N-[(3SR,4RS)-4-(cyclopropyl-methyl-amino)-tetrahydro-pyran-3-yl]-4-trifluoro-methylbenzamide] | 126
6 | O=C(N[C@@H]1COCC[C@H]1N1CCCC1)c1ccc(C(F)(F)F)cc1C1CC1 (racemic) [Example 8, 2-Cyclopropyl-N-((3SR,4RS)-4-pyrrolidin-1-yl-tetrahydro-pyran-3-yl)-4-trifluoromethyl-benzamide] | 36.3
7 | O=C(N[C@@H]1COCC[C@H]1N1CCCCC1)c1ccc(C(F)(F)F)cc1C1CC1 (racemic) [Example 19, 2-Cyclopropyl-N-((3SR,4RS)-4-piperidin-1-yl-tetrahydro-pyran-3-yl)-4-trifluoro-methylbenzamide] | 81.5
8 | CC1(N[C@@H]2CCOC[C@H]2NC(=O)c2ccc(C(F)(F)F)cc2C2CC2)CCCC1 (racemic) [Example 29, 2-Cyclopropyl-N-[(3SR,4RS)-4-(1-methyl-cyclo-pentyl-amino)tetra-hydro-pyran-3-yl]-4-trifluoromethyl-benzamide] | 235
9 | COc1cc(C(F)(F)F)cc(SC)c1C(=O)N[C@H]1COCC[C@H]1N1CCCC1 (racemic) [Example 1, 2-Methoxy-6-methylsulfanyl-N-((3RS,4RS)-4-pyrrolidin-1-yl-tetrahydro-pyran-3-yl)-4-trifluoromethyl-benzamide] | 261
10 | COc1cc(C(F)(F)F)cc(SC)c1C(=O)N[C@@H]1COCC[C@H]1NC1CCCC1 (racemic) [Example 11, N-((3SR,4RS)-4-Cyclopentylamino-tetrahydro-pyran-3-yl)-2-methoxy-6-methylsulfanyl-4-trifluoromethyl-benzamide] | 127
11 | COc1cc(C(F)(F)F)cc(C2CC2)c1C(=O)N[C@@H]1COCC[C@H]1N1CCCC1 [Example 58] | 7.6
12 | COc1cc(C(F)(F)F)cc(SC)c1C(=O)N[C@@H]1CCOC[C@@H]1N1CCCC1 [Example 65, (+)-2-Methoxy-6-methylsulfanyl-N-(3-pyrrolidin-1-yl-tetrahydro-pyran-4-yl)-4-trifluoro-methyl-benzamide] | 119
13 | CC(C)N[C@@H]1CCOC[C@H]1NC(=O)c1ccc(C(F)(F)F)cc1C1CC1 (racemic) [Example 16, Cyclopropyl-N-((3SR,4RS)-4-isopropylamino-tetrahydro-pyran-3-yl)-4-trifluoro-methylbenzamide] | 296
14 | Cc1cc(C(F)(F)F)cc(C(F)(F)F)c1C(=O)N[C@@H]1COCC[C@H]1N1CCCC1 [Example 40, (−)-2-Methyl-N-trans-(4-pyrrolidin-1-yl-tetrahydro-pyran-3-yl)-4,6-bis-trifluoromethyl-benzamide] | 95.5
15 | CSc1cc(C(F)(F)F)cc(C(F)(F)F)c1C(=O)N[C@H]1COCC[C@@H]1N1CCCC1 [Example 41, (+)-2-Methylsulfanyl-N-trans-(4-pyrrolidin-1-yl-tetrahydro-pyran-3-yl)-4,6-bis-trifluoromethyl-benzamide] | 44.7
16 | O=C(N[C@@H]1COCC[C@H]1N1CCC(O)CC1)c1ccc(C(F)(F)F)cc1C1CC1 (racemic) [Example 36] | 274
17 | O=C(N[C@@H]1COCC[C@H]1NC1CCOCC1)c1ccc(C(F)(F)F)cc1C1CC1 (racemic) [Example 17, 2-Cyclopropyl-N-[(3SR,4RS)-4-(tetrahydro-pyran-4-ylamino)-tetrahydro-pyran-3-yl]-4-trifluoro-methylbenzamide] | 904
18 | COc1cc(C(F)(F)F)cc(C)c1C(=O)N[C@@H]1COCC[C@H]1N1CCCC1 [Example 54] | 33.8
19 | O=C(N[C@H]1COCC[C@@H]1N1CCCC1)c1c(C2CC2)cc(C(F)(F)F)cc1C(F)(F)F [Example 47, (+)-2-Cyclopropyl-N-(4-pyrrolidin-1-yl-tetrahydro-pyran-3-yl)-4,6-bis-trifluoromethyl-benzamide] | 16
20 | COc1cc(C(F)(F)F)cc(SC)c1C(=O)N[C@H]1COCC[C@@H]1N1CCC(O)C1 (mixture of isomers) [Example 7, N-[(3RS,4SR)-4-(3-Hydroxy-pyrrolidin-1-yl)-tetrahydro-pyran-3-yl]-2-methoxy-6-methylsulfanyl-4-trifluoromethyl-benzamide] | 155
21 | O=C(N[C@@H]1COCC[C@H]1NC1CCCCC1)c1ccc(C(F)(F)F)cc1C1CC1 [Example 49] | 340
22 | COc1cc(C(F)(F)F)cc(SC)c1C(=O)N[C@@H]1CCOC[C@@H]1N1CCCC1 (relative stereo) [Example 63, cis-2-Methoxy-6-methylsulfanyl-N-(3-pyrrolidin-1-yl-tetrahydro-pyran-4-yl)-4-trifluoromethyl-benzamide] | 189
23 | CC(N[C@@H]1CCOC[C@H]1NC(=O)c1ccc(C(F)(F)F)cc1C1CC1)C1CC1 (mixture of isomers) [Example 30, 2-Cyclopropyl-N-[(3RS,4SR)-4-(1-cyclopropyl-ethylamino)-tetrahydro-pyran-3-yl]-4-trifluoro-methylbenzamide] | 83.8
24 | O=C(N[C@@H]1COCC[C@H]1NC1CCC1)c1ccc(C(F)(F)F)cc1C1CC1 (racemic) [Example 32, N-((3SR,4RS)-4-Cyclobutylamino-tetrahydro-pyran-3-yl)-2-cyclo-propyl-4-trifluoromethyl-benzamide] | 119
25 | COc1cc(C(F)(F)F)cc(SC)c1C(=O)N[C@H]1COCC[C@@H]1NC1CCCC1 [Example 45, (+)-N-(4-Cyclopentylamino-tetrahydro-pyran-3-yl)-2-methoxy-6-methylsulfanyl-4-trifluoromethyl-benzamide] | 111
26 | COc1cc(C(F)(F)F)cc(SC)c1C(=O)N[C@@H]1COCC[C@H]1N1C[C@H]2C[C@H]2C1 [Example 34, N-[(3S,4R)-4-(3-Aza-bicyclo[3.1.0]hex-3-yl)-tetra-hydro-pyran-3-yl]-2-methoxy-6-methylsulfanyl-4-trifluoromethyl-benzamide] | 110
27 | CSc1cc(C(F)(F)F)cc(C(F)(F)F)c1C(=O)N[C@@H]1COCC[C@H]1N1CCCC1 (racemic) [Example 9, 2-Methylsulfanyl-N-((3SR,4RS)-4-pyrrolidin-1-yl-tetrahydro-pyran-3-yl)-4,6-bis-trifluoromethyl-benzamide] | 16.5
28 | O=C(N[C@H]1COCC[C@@H]1N1CCCC1)c1ccc(C(F)(F)F)cc1C1CC1 [Example 38, (−)-2-Cyclopropyl-N-(4-pyrrolidin-1-yl-tetrahydro-pyran-3-yl)-4-trifluoromethyl-benzamide] | 83.4
